Consider 70 compounds from PubChem BioAssay AID602296 (Broad Institute, 2012).

Results filed as inconclusive are left out. The source made the active and inactive calls.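 Rule for the calls: active = fitted activation curve crossing 40% at a concentration no higher than the sample's top valid tested dose; inconclusive = flat fitted curve at 30% to 70% activation, or poor curve fit; inactive = signal decrease, flat curve within 30%, or the rest.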

In the test the test system is NIH3T3-HGL HSF-1 response element luciferase, 48 h. As to the kind of experiment: sustained heat shock response element induction – cell-based, mouse, luciferase, cherry-pick, dose, confirmation (AID 602296).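 Note: test compounds applied by themselves with no MG132 co-treatment.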
For `Cc1ccc(NN2C(=O)C=C(c3ccccc3)C2=O)cc1`, the AC40 was 7.33 µM. `CCOc1cccc(/C=C/c2ccc3cccc(O)c3n2)c1OC`: the AC40 was > 26 µM (inactive).

`O=c1/c(=C/c2ccccc2)sc2nnc(-c3cccs3)n12`: the AC40 is > 26 µM (inactive). As for `COc1cc(CNCC(O)c2ccccc2)ccc1OCc1ccc(Cl)nc1` (stereo not given), the AC40 was > 26 µM (inactive). Next, `Cc1ccc(C(=O)OCC(=O)c2ccc(Cl)s2)s1`: 15.1 µM. Regarding `O=C1NC(=S)S/C1=C/c1ccc(OC(=O)c2ccco2)cc1`, the AC40 is 22.5 µM. As for `CN(C)C(CNC(=O)CCC(=O)c1ccc(Br)cc1)c1ccccc1` (stereo not given), the AC40 is > 26 µM (inactive). In the case of `Cc1nc(SCCOc2ccc(F)cc2)c2ccccc2n1` it was 3.44 µM; in that of `Cc1nc(S(=O)(=O)c2ccc(Cl)cc2)c(NCc2ccccc2)o1`, > 26 µM (inactive). Next, `Clc1ccc(-c2nc(/C=N/N3CCOCC3)c3ccccn23)cc1`: 18.3 µM. In the case of `Nc1ccc(Sc2cnn(-c3ccccc3)c(=O)c2Cl)cc1` it was 8.39 µM; in that of `CCn1c(SCC(=O)c2ccc(Cl)cc2)nnc1-c1ccoc1C`, 11.1 µM.

Regarding `Cc1cc(C)n(CC(O)COc2ccc(Cl)cc2Cl)n1` (stereo not given), the AC40 is 5.12 µM. Next, `O=C(CCS(=O)(=O)c1ccccc1)Nc1ccccn1`: > 26 µM (inactive). Turning to `Cc1noc(NS(=O)(=O)c2ccc(NC(=O)c3oc4ccc(F)cc4c3C)cc2)c1C`, the AC40 is > 26 µM (inactive). Next, `Nc1nnc(CSCc2ccccc2Cl)s1`: > 26 µM (inactive). Regarding `NC(CSCc1cccc(Br)c1)C(=O)O` (stereo not given), the AC40 is > 26 µM (inactive).

As to `CCOC(=O)N1CCC(NS(=O)(=O)c2ccc3c(c2)C(C)(C)C(=O)N3C)CC1`, the AC40 was > 26 µM (inactive). On to `COc1ccccc1CN1CC(C(=O)NCCc2ncccc2C)CCC1=O` (stereo not given), for which the AC40 was 24.8 µM. Regarding `Cc1nn(C(C)C(=O)NCCCN2CCCCC2C)c(=O)c2c1sc1ccccc12` (stereo not given), the AC40 was > 26 µM (inactive).

Take `Cc1ccc(NC2c3ncccc3C(=O)N2C2CCCCC2)cc1` (stereo not given): the AC40 is > 26 µM (inactive). Consider `CSC(=NC#N)N1CCN(c2ccc(Cl)cc2)CC1`, for which the AC40 is 25.3 µM.

Consider `O=C1CC(N2C(=O)/C(=C/C=C/c3ccccc3)SC2=S)C(=O)N1c1ccccc1` (stereo not given), for which the AC40 was > 26 µM (inactive). Regarding `CCOC(=O)Cn1nnc(-c2cccc(OC)c2)n1`, the AC40 is 12.8 µM.

Turning to `Cc1ccc(O)c(NC(=O)c2onc(C)c2Cl)c1`, the AC40 was > 26 µM (inactive). As to `O=c1c2cc(N3CCOCC3)ccc2[nH]c(=S)n1Cc1ccccn1`, the AC40 is 23.5 µM.

Take `O=C1CCCN2N=C(SCC(=O)Nc3ccc(Br)cc3)SC2=N1`: the AC40 is > 26 µM (inactive). As to `Cn1c(CCCOc2ccc(Cl)cc2Cl)nnc1SCC(=O)Nc1cccc(F)c1`, the AC40 was 20.2 µM.

As to `c1ccc2c3c([nH]c2c1)CCNC3`, the AC40 is > 26 µM (inactive). Regarding `COc1ccc(-c2c(C)c3cc(O)ccc3oc2=O)cc1OC`, the AC40 is > 26 µM (inactive). For `CC(C)(C)C(=O)NCC12C=CC(O1)C1C(=O)N(c3ccccc3)C(=O)C12` (stereo not given), the AC40 was > 26 µM (inactive). Take `O=C(O)CSc1c(-c2ccccc2)[nH]c2ccccc12`: the AC40 was > 26 µM (inactive). `CN(c1ccccc1)c1nc(N)c([N+](=O)[O-])c(N2CCCCCC2)n1`: the AC40 was > 26 µM (inactive). Consider `Cn1c(CO)cnc1SCC(=O)c1ccc(Cl)cc1`, for which the AC40 is 8.6 µM.

With `CC(C)(CN)CC(=O)O`, the AC40 is > 26 µM (inactive). For the compound `CCC(C)n1c(SCC(=O)NC(=O)Nc2ccc3c(c2)OCCO3)nc2ccccc2c1=O` (stereo not given), the AC40 is > 26 µM (inactive). In the case of `Cc1ccc(N2C(=O)SC(N(CC(=O)O)c3ccc(C)cc3)C2=O)cc1` (stereo not given) it was 9.53 µM; in that of `CCN(CC)CCCNC(=O)CSc1c2c(nc3cc(Cl)ccc13)CCCC2`, 22 µM; in that of `O=C(NC(CO)(CO)CO)c1coc(=O)c(Br)c1`, > 26 µM (inactive). Next, `CCCSc1nnc2n(-c3ccccc3OC)c(=O)c3c4c(sc3n12)CCC4`: > 26 µM (inactive); `S=C1NC(c2ccccc2)=NCN1c1ccc(Br)cc1`: 8.41 µM.

Take `Cc1cccc(OCC(=O)Nc2cc(C)ccc2O)c1`: the AC40 was > 26 µM (inactive). In the case of `COc1cc2c(cc1OC)C(CCc1ccccc1)=NCC2` it was > 26 µM (inactive); in that of `C/C(Cn1cnc([N+](=O)[O-])n1)=N\NC(=O)c1ccccc1F`, 2.7 µM; in that of `Cc1ccc(C(=O)Cn2nc(C(=O)O)c3ccccc3c2=O)cc1C`, > 26 µM (inactive).

Take `CCCC12CN3CC(C)(CN(C1)C3c1ccc3c(c1)OCO3)C2=O` (stereo not given): the AC40 was > 26 µM (inactive).

Take `COc1cc(/C=N/NC(=S)NC2CC3C=CC2C3)cc(OC)c1OC` (stereo not given): the AC40 was > 26 µM (inactive). Consider `O=C(CSc1nnc(-c2cccs2)o1)N1CCCc2ccccc21`, for which the AC40 was > 26 µM (inactive). In the case of `COc1ccc(N=C2NC(=O)/C(=C\C=C\c3ccco3)S2)cc1` it was 12.1 µM; in that of `N#C/C(=C(\O)C(F)(F)F)c1nnc2n1CCCCC2`, > 26 µM (inactive); in that of `CCN(CCNC(=O)CN1CCN(Cc2ccc(Cl)cc2)C1=O)c1ccccc1`, 20.9 µM.

With `S=C(N/N=C/c1cccs1)NC1CC2CCC1C2` (stereo not given), the AC40 was 4.41 µM. In the case of `Oc1cccnc1Sc1cccc(C(F)(F)F)c1` it was > 26 µM (inactive); in that of `c1ccc2[nH]c3cc4ncnc4cc3nc2c1`, 5.43 µM; in that of `O=c1[nH]c(N2CCN(c3ccccc3)CC2)nc2c1CCC2`, > 26 µM (inactive).

Regarding `CC(C)(C)c1ccc(COc2ccsc2C(=O)O)cc1`, the AC40 is 4.42 µM. In the case of `C=CCC(NCc1ccco1)c1ccc(OC)c(OC)c1` (stereo not given) it was > 26 µM (inactive); in that of `Cc1ccc(Nc2c(N)c(=O)oc3ccccc23)cc1`, > 26 µM (inactive); in that of `COc1ccc(-c2coc3cc4oc(=O)c(CC(=O)O)c(C)c4cc23)cc1`, > 26 µM (inactive). For `COc1ccc(NS(=O)(=O)c2cc(NC(=O)c3cnccn3)ccc2N2CCCC2)cc1`, the AC40 was > 26 µM (inactive).

In the case of `CCCNC(=O)Nc1ccc(C)cc1C`, the AC40 is > 26 µM (inactive). For `COc1cccc(-c2nn(-c3ccccc3)cc2C(=O)n2nnc3ccccc32)c1`, the AC40 is > 26 µM (inactive).

Take `C[C@]12CC[C@@H]3c4cc(O)c(O)cc4CC[C@H]3[C@@H]1CC[C@@H]2O`: the AC40 was 25.2 µM.

Consider `CC(=O)c1cccc(N(CC(=O)Nc2ccc(F)cc2F)S(C)(=O)=O)c1`, for which the AC40 was 5.46 µM. Next, `CC(C)NC(=O)CN(C(=O)CCC(=O)Nc1nccs1)c1ccc2c(c1)OCO2`: > 26 µM (inactive); `COc1cccc(C2C(C(N)=O)=C(C)Nc3nc(-c4cccc(Cl)c4)nn32)c1` (stereo not given): > 26 µM (inactive); `Cc1ccc(CC2SC(N=C(N)N)=NC2=O)cc1` (stereo not given): > 26 µM (inactive). Next, `CCOC(=O)c1nnsc1Nc1ccc(C)c(C)c1`: 5.31 µM. `COc1cccc(CNc2ccc(Br)cn2)c1O`: the AC40 was 12.2 µM. For the compound `C=CCN(C(=O)CCc1ccccc1OC)c1nc(-c2ccc(S(C)(=O)=O)cc2)cs1`, the AC40 is > 26 µM (inactive).
